Data as given in PubChem BioAssay (NCI).
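Following 48 hours of exposure in 96-well plates, responses at five concentrations were used to interpolate endpoints linearly. At the TGI there is no net growth.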

What was measured:
Test in all cases: growth of human tumour cells (NCI), 48 h
SK-MEL-2 melanoma = test system: SK-MEL-2 melanoma
BT-549 breast = test system: BT-549 breast
COLO 205 colon = test system: COLO 205 colon
M14 melanoma = test system: M14 melanoma
SNB-75 CNS = test system: SNB-75 CNS
SF-268 CNS = test system: SF-268 CNS
MALME-3M melanoma = test system: MALME-3M melanoma
MCF7 breast = test system: MCF7 breast
HT29 colon = test system: HT29 colon
EKVX NSCLC = test system: EKVX NSCLC
SW-620 colon = test system: SW-620 colon
RPMI-8226 leukemia = test system: RPMI-8226 leukemia
SK-MEL-5 melanoma = test system: SK-MEL-5 melanoma
K-562 leukemia = test system: K-562 leukemia
OVCAR-5 ovarian = test system: OVCAR-5 ovarian
UO-31 renal = test system: UO-31 renal
UACC-257 melanoma = test system: UACC-257 melanoma
LOX IMVI melanoma = test system: LOX IMVI melanoma
CAKI-1 renal = test system: CAKI-1 renal
SF-539 CNS = test system: SF-539 CNS
HCT-116 colon = test system: HCT-116 colon
U251 CNS = test system: U251 CNS
SK-MEL-28 melanoma = test system: SK-MEL-28 melanoma
DU-145 prostate = test system: DU-145 prostate
NCI-H23 lung = test system: NCI-H23 lung
CCRF-CEM leukemia = test system: CCRF-CEM leukemia
HOP-92 NSCLC = test system: HOP-92 NSCLC
OVCAR-3 ovarian = test system: OVCAR-3 ovarian
OVCAR-4 ovarian = test system: OVCAR-4 ovarian
IGROV1 ovarian = test system: IGROV1 ovarian
A498 renal = test system: A498 renal
TK-10 renal = test system: TK-10 renal
SNB-19 CNS = test system: SNB-19 CNS
MDA-MB-435 = test system: MDA-MB-435
KM12 colon = test system: KM12 colon
HL-60(TB) leukemia = test system: HL-60(TB) leukemia
PC-3 prostate = test system: PC-3 prostate
MOLT-4 leukemia = test system: MOLT-4 leukemia
OVCAR-8 ovarian = test system: OVCAR-8 ovarian
UACC-62 melanoma = test system: UACC-62 melanoma
SF-295 CNS = test system: SF-295 CNS
NCI-H226 lung = test system: NCI-H226 lung
RXF 393 renal = test system: RXF 393 renal
SK-OV-3 ovarian = test system: SK-OV-3 ovarian
NCI/ADR-RES ovarian = test system: NCI/ADR-RES ovarian
SN12C renal = test system: SN12C renal
NCI-H522 lung = test system: NCI-H522 lung
786-0 renal = test system: 786-0 renal
HS 578T breast = test system: HS 578T breast
T-47D breast = test system: T-47D breast
HOP-62 NSCLC = test system: HOP-62 NSCLC
NCI-H460 lung = test system: NCI-H460 lung
ACHN renal = test system: ACHN renal
MDA-MB-231 breast = test system: MDA-MB-231 breast
HCT-15 colon = test system: HCT-15 colon
A549 NSCLC = test system: A549 NSCLC
HCC-2998 colon = test system: HCC-2998 colon
MDA-N = test system: MDA-N

Measured: TGI

COc1cc(C(=O)N(C)N(C)C)cc(OC)c1OC
> 10 µM: all assays above
